Experimental data from the supplement of paper PMC10307832.

How the values were obtained:
Experiment in all cases: relative viability (nuclei count vs DMSO), 5 days (fraction); higher = more cells survive
[1] = compound: CS(=O)(=O)c1ccc(C(=O)Nc2ccc(Cl)c(-c3ccccn3)c2)c(Cl)c1 [Vismodegib] + CC(=O)Nc1cccc(-n2c(=O)n(C3CC3)c(=O)c3c(Nc4ccc(I)cc4F)n(C)c(=O)c(C)c32)c1 [Trametinib] (partner 0.02 µM)
Procedure, shortened: (§1)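 Lung cancer cell lines in 1536-well plates were dosed by pin tool the day after seeding, either with one drug alone or with a fixed anchor-drug dose plus five library-drug doses (not always all listed) in √10 steps. After 5 days, cells were fixed and their nuclei stained in one step (final 0.05% Triton X-100, 1% formaldehyde, 1 ug/ml Hoechst), then counted on 4× images. Relative viability is the nuclei count in treated wells divided by that in vehicle wells. Values are medians of duplicate plates.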

[2] = compound: CS(=O)(=O)c1ccc(C(=O)Nc2ccc(Cl)c(-c3ccccn3)c2)c(Cl)c1 [Vismodegib] + N=C(N)NC(=N)NCCc1ccccc1 [Phenformin] (partner 250 µM)
Procedure, shortened: as §1

[3] = compound: CS(=O)(=O)c1ccc(-c2cnc(N)c(C(=O)Nc3ccccc3)n2)cc1 [VE-821] + Cc1nc(Nc2ncc(C(=O)Nc3c(C)cccc3Cl)s2)cc(N2CCN(CCO)CC2)n1 [Dasatinib] (partner 0.075 µM)
Procedure, shortened: as §1

[4] = compound: CS(=O)(=O)c1ccc(-c2cnc(N)c(C(=O)Nc3ccccc3)n2)cc1 [VE-821] + COc1cccc2cc(-c3nc([C@H]4CC[C@H](C(=O)O)CC4)n4ncnc(N)c34)[nH]c12 [OSI-027] (partner 0.5 µM)
Procedure, shortened: as §1

Row | Cell Line | relative viability ([1]; first compound 0.08 µM) | relative viability ([1]; first compound 0.253 µM) | relative viability ([1]; first compound 0.8 µM) | relative viability ([1]; first compound 2.53 µM) | relative viability ([1]; first compound 8 µM) | relative viability ([2]; first compound 0.08 µM) | relative viability ([2]; first compound 0.253 µM) | relative viability ([2]; first compound 0.8 µM) | relative viability ([2]; first compound 2.53 µM) | relative viability ([2]; first compound 8 µM) | relative viability ([3]; first compound 0.08 µM) | relative viability ([3]; first compound 0.253 µM) | relative viability ([3]; first compound 0.8 µM) | relative viability ([3]; first compound 2.53 µM) | relative viability ([3]; first compound 8 µM) | relative viability ([4]; first compound 0.08 µM) | relative viability ([4]; first compound 0.253 µM) | relative viability ([4]; first compound 0.8 µM) | relative viability ([4]; first compound 2.53 µM) | relative viability ([4]; first compound 8 µM)
1 | NCI-H1650 | 0.621 | 0.522 | 0.643 | 0.606 | 0.666 | 0.387 | 0.414 | 0.479 | 0.415 | 0.406 | 0.312 | 0.322 | 0.28 | 0.255 | 0.211 | 0.757 | 0.542 | 0.546 | 0.613 | 0.415
2 | NCI-H2023 | 0.568 | 0.538 | 0.605 | 0.47 | 0.498 | 0.367 | 0.364 | 0.43 | 0.384 | 0.401 | 0.681 | 0.432 | 0.458 | 0.373 | 0.13 | 0.392 | 0.311 | 0.274 | 0.274 | 0.11
3 | SK-LU-1 | 0.441 | 0.473 | 0.54 | 0.441 | 0.444 | 0.569 | 0.489 | 0.538 | 0.477 | 0.705 | 0.17 | 0.19 | 0.163 | 0.16 | 0.12 | 0.316 | 0.316 | 0.312 | 0.268 | 0.193
4 | NCI-H2347 | 0.311 | 0.286 | 0.265 | 0.301 | 0.288 | 0.336 | 0.477 | 0.448 | 0.361 | 0.464 | 0.299 | 0.319 | 0.344 | 0.329 | 0.262 | 0.361 | 0.399 | 0.404 | 0.446 | 0.376
5 | NCI-H727 | 0.446 | 0.367 | 0.405 | 0.403 | 0.418 | 0.52 | 0.58 | 0.592 | 0.524 | 0.444 | 0.457 | 0.334 | 0.374 | 0.32 | 0.317 | 0.721 | 0.624 | 0.619 | 0.54 | 0.355
6 | COR-L23 | 0.525 | 0.532 | 0.658 | 0.58 | 0.67 | 0.441 | 0.423 | 0.43 | 0.453 | 0.493 | 0.678 | 0.48 | 0.545 | 0.536 | 0.395 | 0.9 | 0.751 | 0.797 | 0.766 | 0.63
7 | NCI-H2126 | 0.558 | 0.519 | 0.568 | 0.58 | 0.565 | 0.529 | 0.517 | 0.482 | 0.493 | 0.506 | 0.57 | 0.52 | 0.515 | 0.427 | 0.36 | 0.757 | 0.651 | 0.645 | 0.59 | 0.49
8 | H3255 | 0.648 | 0.602 | 0.573 | 0.614 | 0.668 | 0.362 | 0.378 | 0.362 | 0.324 | 0.413 | 0.364 | 0.403 | 0.321 | 0.383 | 0.328 | 0.603 | 0.584 | 0.637 | 0.606 | 0.566
9 | NCI-H1915 | 0.295 | 0.282 | 0.303 | 0.303 | 0.335 | 0.368 | 0.359 | 0.381 | 0.355 | 0.357 | 0.335 | 0.295 | 0.345 | 0.33 | 0.332 | 0.701 | 0.593 | 0.618 | 0.684 | 0.534
10 | NCI-H358 | 0.151 | 0.139 | 0.14 | 0.128 | 0.139 | 0.345 | 0.418 | 0.359 | 0.329 | 0.292 | 0.157 | 0.156 | 0.183 | 0.209 | 0.213 | 0.983 | 0.875 | 0.727 | 0.79 | 0.48
11 | NCI-H23 | 0.511 | 0.353 | 0.368 | 0.411 | 0.482 | 0.765 | 0.728 | 0.806 | 0.742 | 0.731 | 0.881 | 0.746 | 0.78 | 0.603 | 0.283 | 0.486 | 0.531 | 0.483 | 0.624 | 0.331
12 | EMC-BAC-2 | 0.871 | 0.847 | 0.806 | 0.859 | 0.953 | 0.571 | 0.53 | 0.5 | 0.506 | 0.502 | 0.349 | 0.316 | 0.346 | 0.342 | 0.275 | 0.398 | 0.319 | 0.372 | 0.388 | 0.346
13 | NCI-H2009 | 0.313 | 0.321 | 0.309 | 0.291 | 0.331 | 0.467 | 0.474 | 0.478 | 0.45 | 0.467 | 0.332 | 0.263 | 0.212 | 0.26 | 0.16 | 0.693 | 0.557 | 0.598 | 0.618 | 0.318
14 | ABC-1 |  |  |  |  |  | 0.231 | 0.253 | 0.241 | 0.24 | 0.235 | 0.554 | 0.519 | 0.614 | 0.517 | 0.439 | 0.53 | 0.485 | 0.485 | 0.475 | 0.381
15 | NCI-H1648 | 0.38 | 0.48 | 0.383 | 0.49 | 0.535 |  |  |  |  |  |  |  |  |  |  | 0.291 | 0.25 | 0.244 | 0.246 | 0.239
16 | A549 |  |  |  |  |  | 0.151 | 0.148 | 0.226 | 0.115 | 0.155 |  |  |  |  |  |  |  |  |  | 
17 | NCI-H1563 |  |  |  |  |  | 0.622 | 0.623 | 0.676 | 0.721 | 0.626 | 0.449 | 0.483 | 0.405 | 0.456 | 0.453 | 0.736 | 0.727 | 0.713 | 0.751 | 0.718
18 | NCI-H1623 |  |  |  |  |  | 0.553 | 0.577 | 0.661 | 0.536 | 0.578 | 0.565 | 0.53 | 0.518 | 0.525 | 0.606 | 0.48 | 0.489 | 0.543 | 0.454 | 0.379
